According to the kinase profiling compilation of Christmann-Franck et al. (2016):
Each block holds one molecule with its values, some of them ahead of it.

Key:
Experiment in all cases: radiometric filter-binding kinase assay, Kinase HotSpot
Details in all cases: compound 0.5 µM; ATP 10 µM
MAPK1 (human) = MAPK1 (human) (UniProt P28482)
OXSR1 (human) = OXSR1 (human) (UniProt O95747)
PRKD2 (human) = PRKD2 (human) (UniProt Q9BZL6)
CSNK1G3 (human) = CSNK1G3 (human) (UniProt Q9Y6M4)
STK17A (human) = STK17A (human) (UniProt Q9UEE5)
Sequence of STK17A (human) (Q9UEE5 whole entry, looked up): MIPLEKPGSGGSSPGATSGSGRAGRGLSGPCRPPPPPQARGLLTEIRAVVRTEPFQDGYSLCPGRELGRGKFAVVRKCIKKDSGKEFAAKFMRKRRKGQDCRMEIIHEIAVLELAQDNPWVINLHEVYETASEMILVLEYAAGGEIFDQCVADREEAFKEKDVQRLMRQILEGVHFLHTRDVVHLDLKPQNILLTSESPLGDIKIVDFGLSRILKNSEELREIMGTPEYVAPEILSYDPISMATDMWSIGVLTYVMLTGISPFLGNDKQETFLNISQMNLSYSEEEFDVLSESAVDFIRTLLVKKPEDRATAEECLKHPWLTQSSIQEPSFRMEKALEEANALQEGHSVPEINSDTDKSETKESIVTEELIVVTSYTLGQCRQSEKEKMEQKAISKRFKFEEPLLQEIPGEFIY

ABL2 (human) = ABL2 (human) (UniProt P42684)
Sequence of ABL2 (human) (P42684 whole entry, looked up): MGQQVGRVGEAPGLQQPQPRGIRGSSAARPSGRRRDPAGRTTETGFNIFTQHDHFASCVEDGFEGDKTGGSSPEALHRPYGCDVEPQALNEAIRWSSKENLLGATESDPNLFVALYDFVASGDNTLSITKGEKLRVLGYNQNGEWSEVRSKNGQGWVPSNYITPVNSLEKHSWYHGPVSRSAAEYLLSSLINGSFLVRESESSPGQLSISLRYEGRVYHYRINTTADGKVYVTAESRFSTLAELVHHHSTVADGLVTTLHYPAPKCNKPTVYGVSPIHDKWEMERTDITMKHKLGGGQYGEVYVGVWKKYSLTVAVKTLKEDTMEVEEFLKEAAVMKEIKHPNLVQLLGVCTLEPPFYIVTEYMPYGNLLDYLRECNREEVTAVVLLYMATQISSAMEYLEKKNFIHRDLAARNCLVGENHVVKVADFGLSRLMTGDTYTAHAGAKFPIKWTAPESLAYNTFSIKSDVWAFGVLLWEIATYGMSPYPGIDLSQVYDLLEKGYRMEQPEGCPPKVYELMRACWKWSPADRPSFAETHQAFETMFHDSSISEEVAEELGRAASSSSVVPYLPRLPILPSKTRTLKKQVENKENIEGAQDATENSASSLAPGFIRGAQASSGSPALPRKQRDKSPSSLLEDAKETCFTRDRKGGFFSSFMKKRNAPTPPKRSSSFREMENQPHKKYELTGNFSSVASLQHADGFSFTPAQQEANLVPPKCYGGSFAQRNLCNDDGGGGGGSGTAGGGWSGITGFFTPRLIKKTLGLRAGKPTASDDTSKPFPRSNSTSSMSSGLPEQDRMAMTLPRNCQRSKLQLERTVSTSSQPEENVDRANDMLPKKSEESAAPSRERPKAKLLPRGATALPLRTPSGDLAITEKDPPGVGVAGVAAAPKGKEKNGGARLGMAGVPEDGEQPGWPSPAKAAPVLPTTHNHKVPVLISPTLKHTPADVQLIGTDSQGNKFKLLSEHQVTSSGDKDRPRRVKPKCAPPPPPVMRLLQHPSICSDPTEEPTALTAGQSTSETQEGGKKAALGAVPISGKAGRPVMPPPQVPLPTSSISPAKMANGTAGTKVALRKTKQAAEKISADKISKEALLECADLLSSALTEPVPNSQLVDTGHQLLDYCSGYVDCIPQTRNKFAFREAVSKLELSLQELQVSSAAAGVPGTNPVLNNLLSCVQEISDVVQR

MARK4 (human) = MARK4 (human) (UniProt Q96L34)
DMPK (human) = DMPK (human) (UniProt Q09013)
MYLK2 (human) = MYLK2 (human) (UniProt Q9H1R3)
[1] = tested on: MKNK1 (human), Q9BUB5 [T385D; 165-205 del]
PRKD3 (human) = PRKD3 (human) (UniProt O94806)
PDGFRB (human) = PDGFRB (human) (UniProt P09619)
Sequence of PDGFRB (human) (P09619 whole entry, looked up): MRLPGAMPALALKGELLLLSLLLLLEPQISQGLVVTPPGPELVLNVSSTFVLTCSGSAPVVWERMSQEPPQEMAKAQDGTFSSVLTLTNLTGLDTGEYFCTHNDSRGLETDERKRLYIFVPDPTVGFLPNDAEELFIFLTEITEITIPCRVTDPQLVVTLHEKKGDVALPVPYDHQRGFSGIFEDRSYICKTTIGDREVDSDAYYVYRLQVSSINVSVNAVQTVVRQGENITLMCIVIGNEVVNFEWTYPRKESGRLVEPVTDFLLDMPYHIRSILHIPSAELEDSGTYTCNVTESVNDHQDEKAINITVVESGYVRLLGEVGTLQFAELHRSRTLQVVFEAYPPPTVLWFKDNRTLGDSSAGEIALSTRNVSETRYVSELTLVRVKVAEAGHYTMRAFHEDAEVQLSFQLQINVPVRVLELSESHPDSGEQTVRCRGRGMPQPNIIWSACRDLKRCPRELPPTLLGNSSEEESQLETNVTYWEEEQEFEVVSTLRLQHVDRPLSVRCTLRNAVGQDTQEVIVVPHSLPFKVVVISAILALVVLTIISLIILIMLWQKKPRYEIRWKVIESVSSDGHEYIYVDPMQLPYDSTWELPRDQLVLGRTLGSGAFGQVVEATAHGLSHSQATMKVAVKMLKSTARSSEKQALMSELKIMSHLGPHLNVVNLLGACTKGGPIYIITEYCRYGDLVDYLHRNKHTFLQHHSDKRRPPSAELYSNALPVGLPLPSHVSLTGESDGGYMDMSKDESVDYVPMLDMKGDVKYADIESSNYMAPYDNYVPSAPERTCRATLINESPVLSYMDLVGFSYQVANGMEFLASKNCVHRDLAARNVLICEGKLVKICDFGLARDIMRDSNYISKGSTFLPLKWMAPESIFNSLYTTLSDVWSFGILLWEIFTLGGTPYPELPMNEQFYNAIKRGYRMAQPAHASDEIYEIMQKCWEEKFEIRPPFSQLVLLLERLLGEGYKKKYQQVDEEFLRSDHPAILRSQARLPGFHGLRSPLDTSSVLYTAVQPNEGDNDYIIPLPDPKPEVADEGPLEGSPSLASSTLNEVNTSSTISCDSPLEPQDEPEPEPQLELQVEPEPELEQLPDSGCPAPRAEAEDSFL

FER (human) = FER (human) (UniProt P16591)
Sequence of FER (human) (P16591 whole entry, looked up): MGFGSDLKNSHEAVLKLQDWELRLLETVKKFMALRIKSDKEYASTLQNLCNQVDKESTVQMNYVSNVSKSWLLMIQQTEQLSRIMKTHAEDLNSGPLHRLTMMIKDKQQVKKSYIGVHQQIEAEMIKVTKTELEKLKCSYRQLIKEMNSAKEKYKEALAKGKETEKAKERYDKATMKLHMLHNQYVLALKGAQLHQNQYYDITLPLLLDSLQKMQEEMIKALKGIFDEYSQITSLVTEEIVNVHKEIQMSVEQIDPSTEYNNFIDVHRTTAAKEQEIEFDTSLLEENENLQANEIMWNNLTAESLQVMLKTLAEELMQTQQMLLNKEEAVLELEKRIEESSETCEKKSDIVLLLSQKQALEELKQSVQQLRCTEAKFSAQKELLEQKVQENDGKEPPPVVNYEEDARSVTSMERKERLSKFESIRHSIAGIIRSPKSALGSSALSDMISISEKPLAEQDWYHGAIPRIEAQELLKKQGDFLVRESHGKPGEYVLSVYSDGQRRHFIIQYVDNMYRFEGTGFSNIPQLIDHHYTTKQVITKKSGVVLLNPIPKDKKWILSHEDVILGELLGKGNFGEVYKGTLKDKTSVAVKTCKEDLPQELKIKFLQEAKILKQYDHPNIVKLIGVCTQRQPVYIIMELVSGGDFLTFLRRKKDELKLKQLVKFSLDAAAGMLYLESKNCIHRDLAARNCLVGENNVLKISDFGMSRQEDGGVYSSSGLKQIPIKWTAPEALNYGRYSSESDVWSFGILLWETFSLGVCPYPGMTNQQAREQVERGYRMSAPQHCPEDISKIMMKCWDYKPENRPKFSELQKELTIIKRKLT

DCLK2 (human) = DCLK2 (human) (UniProt Q8N568)
INSR (human) = INSR (human) (UniProt P06213)
ACVR1 (human) = ACVR1 (human) (UniProt Q04771)
NEK3 (human) = NEK3 (human) (UniProt P51956)
NEK11 (human) = NEK11 (human) (UniProt Q8NG66)
SGK3 (human) = SGK3 (human) (UniProt Q96BR1)
CLK1 (human) = CLK1 (human) (UniProt P49759)
BMX (human) = BMX (human) (UniProt P51813)
MET (human) = MET (human) (UniProt P08581)
STK16 (human) = STK16 (human) (UniProt O75716)
CDK5 CDK5R1 p35 (human) = CDK5 CDK5R1 p35 (human) (UniProt Q00535+Q15078)
YES1 (human) = YES1 (human) (UniProt P07947)
SRPK3 (human) = SRPK3 (human) (UniProt Q9UPE1)
CDK5 CDK5R1 p25 (human) = CDK5 CDK5R1 p25 (human) (UniProt Q00535+Q15078)
AURKA (human) = AURKA (human) (UniProt O14965)
Sequence of AURKA (human) (O14965 whole entry, looked up): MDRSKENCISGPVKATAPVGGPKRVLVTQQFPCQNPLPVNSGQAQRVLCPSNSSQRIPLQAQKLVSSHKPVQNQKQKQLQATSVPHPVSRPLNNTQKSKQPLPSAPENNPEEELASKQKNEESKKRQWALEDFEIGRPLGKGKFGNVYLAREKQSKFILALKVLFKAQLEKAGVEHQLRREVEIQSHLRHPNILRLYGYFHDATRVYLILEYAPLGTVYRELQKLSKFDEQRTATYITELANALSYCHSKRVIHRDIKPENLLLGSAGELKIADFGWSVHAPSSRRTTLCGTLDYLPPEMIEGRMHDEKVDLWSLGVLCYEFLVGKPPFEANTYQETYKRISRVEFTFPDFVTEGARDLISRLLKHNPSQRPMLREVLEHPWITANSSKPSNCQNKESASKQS

STK4 (human) = STK4 (human) (UniProt Q13043)
BRSK1 (human) = BRSK1 (human) (UniProt Q8TDC3)
ADRBK1 (human) = ADRBK1 (human) (UniProt P25098)
HIPK3 (human) = HIPK3 (human) (UniProt Q9H422)
SIK2 (human) = SIK2 (human) (UniProt Q9H0K1)
DYRK1B (human) = DYRK1B (human) (UniProt Q9Y463)
EPHB1 (human) = EPHB1 (human) (UniProt P54762)
Sequence of EPHB1 (human) (P54762 whole entry, looked up): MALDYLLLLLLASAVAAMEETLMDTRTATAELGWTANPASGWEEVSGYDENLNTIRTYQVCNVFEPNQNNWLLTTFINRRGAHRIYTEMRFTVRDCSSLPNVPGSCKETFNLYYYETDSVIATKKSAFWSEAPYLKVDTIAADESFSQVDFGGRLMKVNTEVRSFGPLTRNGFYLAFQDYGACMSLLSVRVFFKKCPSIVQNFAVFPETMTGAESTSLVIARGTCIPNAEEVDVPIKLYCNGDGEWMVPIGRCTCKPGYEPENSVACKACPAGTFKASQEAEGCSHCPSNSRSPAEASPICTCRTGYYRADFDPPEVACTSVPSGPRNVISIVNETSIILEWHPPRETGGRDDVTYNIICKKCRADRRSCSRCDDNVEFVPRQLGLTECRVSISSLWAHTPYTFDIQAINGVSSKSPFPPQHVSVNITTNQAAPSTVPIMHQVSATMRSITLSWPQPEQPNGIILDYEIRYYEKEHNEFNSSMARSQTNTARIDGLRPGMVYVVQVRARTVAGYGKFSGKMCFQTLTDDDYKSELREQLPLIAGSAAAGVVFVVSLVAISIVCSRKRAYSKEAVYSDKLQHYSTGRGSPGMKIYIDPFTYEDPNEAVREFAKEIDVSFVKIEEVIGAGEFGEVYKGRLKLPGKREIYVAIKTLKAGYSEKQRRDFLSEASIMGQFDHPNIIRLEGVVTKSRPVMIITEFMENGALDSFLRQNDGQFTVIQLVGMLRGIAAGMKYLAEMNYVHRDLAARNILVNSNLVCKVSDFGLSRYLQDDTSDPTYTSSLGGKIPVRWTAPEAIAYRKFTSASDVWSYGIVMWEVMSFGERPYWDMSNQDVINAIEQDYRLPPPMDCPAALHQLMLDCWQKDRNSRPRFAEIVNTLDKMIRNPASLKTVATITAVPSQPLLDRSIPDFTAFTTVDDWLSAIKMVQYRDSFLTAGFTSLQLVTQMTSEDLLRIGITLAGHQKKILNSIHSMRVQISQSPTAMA

EPHB3 (human) = EPHB3 (human) (UniProt P54753)
CDK9 CCNK (human) = CDK9 CCNK (human) (UniProt O75909+P50750)
MAP3K9 (human) = MAP3K9 (human) (UniProt P80192)
IKBKB (human) = IKBKB (human) (UniProt O14920)
MAPK11 (human) = MAPK11 (human) (UniProt Q15759)
EPHA7 (human) = EPHA7 (human) (UniProt Q15375)
PKN2 (human) = PKN2 (human) (UniProt Q16513)

SMILES: N#C/C(=C\c1ccc(O)c(O)c1)C(=O)NCc1ccccc1
residual activity (MAPK1 (human)): 92.2%
residual activity (OXSR1 (human)): 101%
residual activity (PRKD2 (human)): 101%
residual activity (CSNK1G3 (human)): 104%
residual activity (STK17A (human)): 98.8%
residual activity (ABL2 (human)): 93.4%
residual activity (MARK4 (human)): 104%
residual activity (DMPK (human)): 99.7%
residual activity (MYLK2 (human)): 97.9%
residual activity [1]: 77.8%
residual activity (PRKD3 (human)): 90.2%
residual activity (PDGFRB (human)): 100%
residual activity (FER (human)): 86.2%
residual activity (DCLK2 (human)): 101%
residual activity (INSR (human)): 93.8%
residual activity (ACVR1 (human)): 91.3%
residual activity (NEK3 (human)): 95.1%
residual activity (NEK11 (human)): 95.4%
residual activity (SGK3 (human)): 102%
residual activity (CLK1 (human)): 98.6%
residual activity (BMX (human)): 88.8%
residual activity (MET (human)): 98.1%
residual activity (STK16 (human)): 99.1%
residual activity (CDK5 CDK5R1 p35 (human)): 99.8%
residual activity (YES1 (human)): 103%
residual activity (SRPK3 (human)): 93.9%
residual activity (CDK5 CDK5R1 p25 (human)): 101%
residual activity (AURKA (human)): 92.2%
residual activity (STK4 (human)): 95.9%
residual activity (BRSK1 (human)): 104%
residual activity (ADRBK1 (human)): 96.6%
residual activity (HIPK3 (human)): 96.6%
residual activity (SIK2 (human)): 99.7%
residual activity (DYRK1B (human)): 106%
residual activity (EPHB1 (human)): 87.4%
residual activity (EPHB3 (human)): 101%
residual activity (CDK9 CCNK (human)): 102%
residual activity (MAP3K9 (human)): 95.5%
residual activity (IKBKB (human)): 103%
residual activity (MAPK11 (human)): 98.7%
residual activity (EPHA7 (human)): 89.7%

SMILES: C[C@@H]1CCN(C(=O)CC#N)C[C@@H]1N(C)c1ncnc2[nH]ccc12
residual activity (MAPK1 (human)): 88.6%
residual activity (OXSR1 (human)): 98.2%
residual activity (CSNK1G3 (human)): 101%
residual activity (STK17A (human)): 106%
residual activity (ABL2 (human)): 90.5%
residual activity (MARK4 (human)): 81.7%
residual activity (DMPK (human)): 108%
residual activity (MYLK2 (human)): 99%
residual activity [1]: 89.9%
residual activity (PRKD3 (human)): 89.8%
residual activity (FER (human)): 104%
residual activity (DCLK2 (human)): 96.6%
residual activity (INSR (human)): 101%
residual activity (ACVR1 (human)): 104%
residual activity (NEK3 (human)): 94.5%
residual activity (NEK11 (human)): 91.7%
residual activity (SGK3 (human)): 98.1%
residual activity (CLK1 (human)): 99.5%
residual activity (BMX (human)): 111%
residual activity (MET (human)): 86.7%
residual activity (STK16 (human)): 94.7%
residual activity (CDK5 CDK5R1 p35 (human)): 99.5%
residual activity (YES1 (human)): 87.1%
residual activity (SRPK3 (human)): 103%
residual activity (CDK5 CDK5R1 p25 (human)): 100%
residual activity (AURKA (human)): 84.1%
residual activity (STK4 (human)): 95.5%
residual activity (BRSK1 (human)): 102%
residual activity (ADRBK1 (human)): 95.3%
residual activity (HIPK3 (human)): 100%
residual activity (SIK2 (human)): 89.2%
residual activity (DYRK1B (human)): 97%
residual activity (EPHB1 (human)): 106%
residual activity (EPHB3 (human)): 54.9%
residual activity (CDK9 CCNK (human)): 102%
residual activity (MAP3K9 (human)): 113%
residual activity (IKBKB (human)): 88.2%
residual activity (MAPK11 (human)): 103%
residual activity (EPHA7 (human)): 89%

SMILES: COc1cc(Nc2c(C#N)cnc3cc(OCCCN4CCN(C)CC4)c(OC)cc23)c(Cl)cc1Cl
residual activity (MAPK1 (human)): 93.7%
residual activity (OXSR1 (human)): 100%
residual activity (PRKD2 (human)): 35.5%
residual activity (CSNK1G3 (human)): 98.3%
residual activity (STK17A (human)): 107%
residual activity (ABL2 (human)): 2.19%
residual activity (MARK4 (human)): 60.6%
residual activity (MYLK2 (human)): 32.1%
residual activity [1]: 96.9%
residual activity (PRKD3 (human)): 42.2%
residual activity (PDGFRB (human)): 74.8%
residual activity (FER (human)): 54.6%
residual activity (DCLK2 (human)): 98.4%
residual activity (INSR (human)): 69.8%
residual activity (ACVR1 (human)): 93.3%
residual activity (NEK3 (human)): 85.9%
residual activity (SGK3 (human)): 94.4%
residual activity (CLK1 (human)): 81%
residual activity (PKN2 (human)): 105%
residual activity (MET (human)): 84.5%
residual activity (STK16 (human)): 85.1%
residual activity (CDK5 CDK5R1 p35 (human)): 98.3%
residual activity (YES1 (human)): 7.29%
residual activity (SRPK3 (human)): 106%
residual activity (CDK5 CDK5R1 p25 (human)): 95.9%
residual activity (AURKA (human)): 86%
residual activity (STK4 (human)): 7.4%
residual activity (BRSK1 (human)): 97.5%
residual activity (ADRBK1 (human)): 97.3%
residual activity (HIPK3 (human)): 93.5%
residual activity (SIK2 (human)): 1.93%
residual activity (DYRK1B (human)): 97%
residual activity (EPHB1 (human)): 11.8%
residual activity (EPHB3 (human)): 49.4%
residual activity (CDK9 CCNK (human)): 102%
residual activity (MAP3K9 (human)): 16.5%
residual activity (IKBKB (human)): 95.4%
residual activity (MAPK11 (human)): 101%
residual activity (EPHA7 (human)): 77.2%

SMILES: COc1ccc2c(c1)/C(=C/c1cnc[nH]1)C(O)=N2
residual activity (MAPK1 (human)): 93.1%
residual activity (OXSR1 (human)): 97.3%
residual activity (PRKD2 (human)): 60.2%
residual activity (CSNK1G3 (human)): 103%
residual activity (STK17A (human)): 42.3%
residual activity (ABL2 (human)): 90.6%
residual activity (MARK4 (human)): 37.4%
residual activity (DMPK (human)): 104%
residual activity (MYLK2 (human)): 21%
residual activity [1]: 88.4%
residual activity (PRKD3 (human)): 38%
residual activity (FER (human)): 88.4%
residual activity (DCLK2 (human)): 96%
residual activity (ACVR1 (human)): 105%
residual activity (NEK3 (human)): 87.8%
residual activity (NEK11 (human)): 84.8%
residual activity (SGK3 (human)): 101%
residual activity (CLK1 (human)): 87.3%
residual activity (BMX (human)): 100%
residual activity (PKN2 (human)): 90.8%
residual activity (MET (human)): 103%
residual activity (STK16 (human)): 76.2%
residual activity (CDK5 CDK5R1 p35 (human)): -0.369%
residual activity (YES1 (human)): 82.1%
residual activity (SRPK3 (human)): 96.2%
residual activity (CDK5 CDK5R1 p25 (human)): 4.52%
residual activity (AURKA (human)): 69%
residual activity (STK4 (human)): 5.67%
residual activity (BRSK1 (human)): 47.1%
residual activity (ADRBK1 (human)): 107%
residual activity (HIPK3 (human)): 101%
residual activity (SIK2 (human)): 100%
residual activity (DYRK1B (human)): 53.1%
residual activity (EPHB1 (human)): 92.2%
residual activity (EPHB3 (human)): 98.8%
residual activity (CDK9 CCNK (human)): 59.4%
residual activity (MAP3K9 (human)): 58%
residual activity (IKBKB (human)): 94.9%
residual activity (MAPK11 (human)): 103%
residual activity (EPHA7 (human)): 90.4%

residual activity (MAPK1 (human)): 88.8%
residual activity (OXSR1 (human)): 98.2%
residual activity (PRKD2 (human)): 62.9%
residual activity (CSNK1G3 (human)): 95.3%
residual activity (STK17A (human)): 62.9%
residual activity (MARK4 (human)): 3.16%
residual activity (DMPK (human)): 112%
residual activity [1]: 92.7%
residual activity (PDGFRB (human)): 14.8%
residual activity (FER (human)): 22.4%
residual activity (DCLK2 (human)): 101%
residual activity (INSR (human)): 106%
residual activity (ACVR1 (human)): 95.5%
residual activity (NEK3 (human)): 107%
residual activity (SGK3 (human)): 93.5%
residual activity (BMX (human)): 32%
residual activity (PKN2 (human)): 11.4%
residual activity (MET (human)): 89.4%
residual activity (STK16 (human)): 47.9%
residual activity (CDK5 CDK5R1 p35 (human)): 74.1%
residual activity (YES1 (human)): 20.6%
residual activity (SRPK3 (human)): 93.3%
residual activity (CDK5 CDK5R1 p25 (human)): 73.3%
residual activity (AURKA (human)): 4.48%
residual activity (STK4 (human)): 5.58%
residual activity (ADRBK1 (human)): 102%
residual activity (HIPK3 (human)): 93.3%
residual activity (DYRK1B (human)): 35.6%
residual activity (EPHB3 (human)): 90.5%
residual activity (CDK9 CCNK (human)): 71%
residual activity (MAP3K9 (human)): 0.446%
residual activity (IKBKB (human)): 97.9%
residual activity (MAPK11 (human)): 97.6%
residual activity (EPHA7 (human)): 87.2%
SMILES: CO[C@@H]1[C@H](N(C)C(=O)c2ccccc2)C[C@H]2O[C@]1(C)n1c3ccccc3c3c4c(c5c6ccccc6n2c5c31)C(=O)NC4
